Experimental data reported in US9315491B2 (DEVELOPMENT CENTER FOR BIOTECHNOLOGY, priority 2009, dated 2016).

target: PI3K (p110α/p85α) (Homo sapiens (Human), UniProt P42336); assay: PI3K HTRF enzyme assay, p110α/p85α; assay type: biochemical; settings: read-out: % inhibition @ 500 nM p110α; compound at 500 nM, 10 μM ATP
Experimental: Recombinant PI3K (p110α/p85α) and PI3K (p110β/p85α) were from Millipore. […] Briefly, the compounds of interest dissolved in 100% DMSO were dispensed in all wells, following which the mixture of PIP2 and enzyme was added. PI3K (p110α/p85α) and PI3K (p110β/p85α) enzyme reactions were initiated in the presence of 10 μM and 100 μM ATP, respectively, and incubated for 30 min at room temperature. STOP solution prepared 2 hours prior to use was added to stop reactions, and mixed well. Detection solution prepared 2 hours prior to use was added, and incubated at room temperature for 17 hours in the dark. […] HTRF ration was calculated as follows: […]

Chain of PI3K (p110α/p85α) (P42336 whole entry, species assumed): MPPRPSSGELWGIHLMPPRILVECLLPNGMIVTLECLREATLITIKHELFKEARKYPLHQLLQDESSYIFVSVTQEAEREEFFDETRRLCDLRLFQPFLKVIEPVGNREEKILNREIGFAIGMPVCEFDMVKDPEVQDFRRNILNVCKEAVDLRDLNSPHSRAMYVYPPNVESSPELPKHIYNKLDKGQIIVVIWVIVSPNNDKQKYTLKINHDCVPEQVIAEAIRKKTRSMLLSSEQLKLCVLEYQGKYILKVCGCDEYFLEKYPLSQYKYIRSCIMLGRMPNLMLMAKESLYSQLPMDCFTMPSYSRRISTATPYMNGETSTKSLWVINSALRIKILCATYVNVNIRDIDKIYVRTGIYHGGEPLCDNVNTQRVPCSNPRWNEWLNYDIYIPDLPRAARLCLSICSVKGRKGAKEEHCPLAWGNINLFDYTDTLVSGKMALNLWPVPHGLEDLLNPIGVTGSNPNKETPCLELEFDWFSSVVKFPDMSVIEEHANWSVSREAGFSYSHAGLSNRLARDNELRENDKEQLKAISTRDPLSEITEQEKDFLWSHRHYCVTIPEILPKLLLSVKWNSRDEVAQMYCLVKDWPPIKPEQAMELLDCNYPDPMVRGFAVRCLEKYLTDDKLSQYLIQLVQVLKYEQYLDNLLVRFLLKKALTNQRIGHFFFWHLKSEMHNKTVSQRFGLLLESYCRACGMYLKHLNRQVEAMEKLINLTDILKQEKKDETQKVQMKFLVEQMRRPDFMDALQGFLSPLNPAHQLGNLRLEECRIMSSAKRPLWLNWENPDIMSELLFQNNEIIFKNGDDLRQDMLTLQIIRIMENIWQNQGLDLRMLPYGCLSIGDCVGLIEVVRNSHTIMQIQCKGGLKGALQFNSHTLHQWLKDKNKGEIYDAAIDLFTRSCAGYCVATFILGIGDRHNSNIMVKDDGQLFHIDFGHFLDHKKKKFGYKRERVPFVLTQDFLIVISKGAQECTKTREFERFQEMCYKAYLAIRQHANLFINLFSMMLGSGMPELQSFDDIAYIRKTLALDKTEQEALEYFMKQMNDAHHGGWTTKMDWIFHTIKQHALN
Chain of PI3K (p110α/p85α) (P27986 whole entry partner, species assumed): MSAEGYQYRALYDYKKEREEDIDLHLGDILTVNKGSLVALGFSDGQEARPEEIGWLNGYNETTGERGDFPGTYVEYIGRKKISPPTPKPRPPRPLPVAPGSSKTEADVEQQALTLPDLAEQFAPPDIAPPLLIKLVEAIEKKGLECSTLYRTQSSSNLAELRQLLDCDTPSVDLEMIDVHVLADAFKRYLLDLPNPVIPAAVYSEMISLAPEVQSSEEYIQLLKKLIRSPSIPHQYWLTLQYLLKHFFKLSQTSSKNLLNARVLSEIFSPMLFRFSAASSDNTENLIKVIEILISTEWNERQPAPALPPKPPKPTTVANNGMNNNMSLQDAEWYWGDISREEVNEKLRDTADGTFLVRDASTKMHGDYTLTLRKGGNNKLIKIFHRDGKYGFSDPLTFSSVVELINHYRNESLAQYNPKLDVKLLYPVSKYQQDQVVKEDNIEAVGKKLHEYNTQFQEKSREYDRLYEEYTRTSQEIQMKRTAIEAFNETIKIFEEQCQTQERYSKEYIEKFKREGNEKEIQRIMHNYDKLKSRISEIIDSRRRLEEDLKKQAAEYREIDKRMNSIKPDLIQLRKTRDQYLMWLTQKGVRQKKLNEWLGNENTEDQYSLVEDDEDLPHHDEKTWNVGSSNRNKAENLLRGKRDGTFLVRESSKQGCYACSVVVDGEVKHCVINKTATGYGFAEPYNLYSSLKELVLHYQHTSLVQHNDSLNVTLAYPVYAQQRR

Compound | inhibition at 0.5 µM [%]
CCOC(=O)c1nc(-c2ccc(NC(=O)Nc3ccc(S(N)(=O)=O)cc3)cc2)nc(N2CCOCC2)c1OCC [MTR-0273, 5-Ethoxy-6-morpholin-4-yl-2-{4-[3-(4-sulfamoyl-phenyl)-ureido]-phenyl}-pyrimidine-4-carboxylic acid ethyl ester] | 50.2
CCOC(=O)c1nc(-c2ccc(NC(=O)Nc3ccc(C(=O)N4CCN(C)CC4)cc3)cc2)nc(N2CCOCC2)c1OCC [MTR-0274, 5-Ethoxy-2-(4-{3-[4-(4-methyl-piperazine-1-carbonyl)-phenyl]-ureido}-phenyl)-6-morpholin-4-yl-pyrimidine-4-carboxylic acid ethyl ester] | 59
CCOC(=O)c1nc(-c2ccc(NC(=O)Nc3ccc(C(=O)NCCN(C)C)cc3)cc2)nc(N2CCOCC2)c1OCC [MTR-0277, 2-(4-{3-[4-(2-Dimethylamino-ethylcarbamoyl)-phenyl]-ureido}-phenyl)-5-ethoxy-6-morpholin-4-yl-pyrimidine-4-carboxylic acid ethyl ester] | 61.9
CCOC(=O)c1nc(-c2ccc(NC(=O)Nc3ccc(C(=O)N4CCOCC4)cc3)cc2)nc(N2CCOCC2)c1OCC [MTR-0278, 5-Ethoxy-2-(4-{3-[4-(morpholine-4-carbonyl)-phenyl]-ureido}-phenyl)-6-morpholin-4-yl-pyrimidine-4-carboxylic acid ethyl ester] | 58.6
COc1cnc(-c2ccc(NC(=O)Nc3ccc(C(N)=O)cc3)cc2)nc1N1CCOCC1 [MTR-0282, 4-{3-[4-(5-Methoxy-4-morpholin-4-yl-pyrimidin-2-yl)-phenyl]-ureido}-benzamide] | 76.8
COc1cnc(-c2ccc(NC(=O)Nc3ccc(S(N)(=O)=O)cc3)cc2)nc1N1CCOCC1 [MTR-0283, 4-{3-[4-(5-Methoxy-4-morpholin-4-yl-pyrimidin-2-yl)-phenyl]-ureido}-benzenesulfonamide] | 72.9
CSc1cnc(-c2ccc(NC(=O)Nc3ccc(S(N)(=O)=O)cc3)cc2)nc1N1CCOCC1 [MTR-0288, 4-{3-[4-(5-Methylsulfanyl-4-morpholin-4-yl-pyrimidin-2-yl)-phenyl]-ureido}-benzenesulfonamide] | 79.2
CCOC(=O)c1nc(-c2ccc(NC(=O)Nc3ccc4oc(=O)[nH]c4c3)cc2)nc(N2CCOCC2)c1OCC [MTR-0299, 5-Ethoxy-6-morpholin-4-yl-2-{4-[3-(2-oxo-2,3-dihydro-benzooxazol-5-yl)-ureido]-phenyl}-pyrimidine-4-carboxylic acid ethyl ester] | 44.3
CSc1c(Cl)nc(-c2ccc(NC(=O)Nc3ccc(C(=O)N4CCOCC4)cc3)cc2)nc1N1CCOCC1 [MTR-0308, 1-[4-(4-Chloro-5-methylsulfanyl-6-morpholin-4-yl-pyrimidin-2-yl)-phenyl]-3-[4-(morpholine-4-carbonyl)-phenyl]-urea] | 106
COc1cnc(-c2ccc(NC(=O)Nc3cccc(C(N)=O)c3)cc2)nc1N1CCOCC1 [MTR-0313, 3-{3-[4-(5-Methoxy-4-morpholin-4-yl-pyrimidin-2-yl)-phenyl]-ureido}-benzamide] | 86.9
CSc1cnc(-c2ccc(NC(=O)Nc3ccc(C(=O)O)cc3)cc2)nc1N1CCOCC1 [MTR-0316, 4-{3-[4-(5-Methylsulfanyl-4-morpholin-4-yl-pyrimidin-2-yl)-phenyl]-ureido}-benzoic acid] | 55.9
CCOC(=O)c1nc(-c2ccc(NC(=O)Nc3ccc(N4CCOCC4=O)cc3)cc2F)nc(N2CCOCC2)c1OCC [MTR-0322, 5-Ethoxy-2-(2-fluoro-4-{3-[4-(3-oxo-morpholin-4-yl)-phenyl]-ureido}-phenyl)-6-morpholin-4-yl-pyrimidine-4-carboxylic acid ethyl ester] | 44.2
CCOc1cnc(-c2ccc(NC(=O)Nc3ccc(C(N)=O)cc3)cc2)nc1N1CCOCC1 [MTR-0323, 4-{3-[4-(5-Ethoxy-4-morpholin-4-yl-pyrimidin-2-yl)-phenyl]-ureido}-benzamide] | 90.8
CCOc1cnc(-c2ccc(NC(=O)Nc3ccc(N4CCOCC4=O)cc3)cc2)nc1N1CCOCC1 [MTR-0325, 1-[4-(5-Ethoxy-4-morpholin-4-yl-pyrimidin-2-yl)-phenyl]-3-[4-(3-oxo-morpholin-4-yl)-phenyl]-urea] | 91.5
CCOc1cnc(-c2ccc(NC(=O)Nc3ccc(S(N)(=O)=O)cc3)cc2)nc1N1CCOCC1 [MTR-0326, 4-{3-[4-(5-Ethoxy-4-morpholin-4-yl-pyrimidin-2-yl)-phenyl]-ureido}-benzenesulfonamide] | 90.7
CSc1c(Cl)nc(-c2ccc(NC(=O)Nc3ccc(NS(C)(=O)=O)cc3)cc2)nc1N1CCOCC1 [MTR-0347, N-(4-{3-[4-(4-Chloro-5-methylsulfanyl-6-morpholin-4-yl-pyrimidin-2-yl)-phenyl]-ureido}-phenyl)-methanesulfonamide] | 80.6

Compound | inhibition at 0.5 µM [%]
COc1cnc(-c2ccc(NC(=O)Nc3ccc(C(=O)O)cc3)cc2)nc1N1CCOCC1 [MTR-0351, 4-{3-[4-(5-Methoxy-4-morpholin-4-yl-pyrimidin-2-yl)-phenyl]-ureido}-benzoic acid] | 52.3
CCOc1cnc(-c2ccc(NC(=O)Nc3ccc(NC(C)=O)cc3)cc2)nc1N1CCOCC1 [MTR-0368, N-(4-{3-[4-(5-Ethoxy-4-morpholin-4-yl-pyrimidin-2-yl)-phenyl]-ureido}-phenyl)-acetamide] | 101
CCOC(=O)c1nc(-c2ccc(NC(=O)Nc3ccc(NC(C)=O)cc3)cc2)nc(N2CCOCC2)c1OCC [MTR-0370, 2-{4-[3-(4-Acetylamino-phenyl)-ureido]-phenyl}-5-ethoxy-6-morpholin-4-yl-pyrimidine-4-carboxylic acid ethyl ester] | 61.8
CSc1c(Cl)nc(-c2ccc(NC(=O)Nc3ccc4oc(=O)[nH]c4c3)cc2)nc1N1CCOCC1 [MTR-0372, 1-[4-(4-Chloro-5-methylsulfanyl-6-morpholin-4-yl-pyrimidin-2-yl)-phenyl]-3-(2-oxo-2,3-dihydro-benzooxazol-5-yl)-urea] | 95.5
CSc1cnc(-c2ccc(NC(=O)Nc3ccc(NS(C)(=O)=O)cc3)cc2)nc1N1CCOCC1 [MTR-0376, N-(4-{3-[4-(5-Methylsulfanyl-4-morpholin-4-yl-pyrimidin-2-yl)-phenyl]-ureido}-phenyl)-methanesulfonamide] | 79.4
CSc1cnc(-c2ccc(NC(=O)Nc3ccc(N4CCOCC4=O)cc3)cc2F)nc1N1CCOCC1 [MTR-0378, 1-[3-Fluoro-4-(5-methylsulfanyl-4-morpholin-4-yl-pyrimidin-2-yl)-phenyl]-3-[4-(3-oxo-morpholin-4-yl)-phenyl]-urea] | 84.5
CSc1cnc(-c2ccc(NC(=O)Nc3ccc(NC(C)=O)cc3)cc2)nc1N1CCOCC1 [MTR-0380, N-(4-{3-[4-(5-Methylsulfanyl-4-morpholin-4-yl-pyrimidin-2-yl)-phenyl]-ureido}-phenyl)-acetamide] | 101
COc1cnc(-c2ccc(NC(=O)Nc3ccc(C(=O)N4CCOCC4)cc3)cc2)nc1N1CCOCC1 [MTR-0382, 1-[4-(5-Methoxy-4-morpholin-4-yl-pyrimidin-2-yl)-phenyl]-3-[4-(morpholine-4-carbonyl)-phenyl]urea] | 95.9
COc1cnc(-c2ccc(NC(=O)Nc3ccc(C(N)=O)cc3)c(F)c2)nc1N1CCOCC1 [MTR-0385, 4-{3-[2-Fluoro-4-(5-methoxy-4-morpholin-4-yl-pyrimidin-2-yl)-phenyl]-ureido}-benzamide] | 64
CSc1c(Cl)nc(-c2ccc(NC(=O)Nc3ccc(S(C)(=O)=O)cc3)cc2)nc1N1CCOCC1 [MTR-0387, 1-[4-(4-Chloro-5-methylsulfanyl-6-morpholin-4-yl-pyrimidin-2-yl)-phenyl]-3-(4-methanesulfonyl-phenyl)-urea] | 83.1
CSc1c(-c2ccncc2)nc(-c2ccc(NC(=O)Nc3ccc(N4CCOCC4=O)cc3)cc2)nc1N1CCOCC1 [MTR-0391, 1-[4-(5-Methylsulfanyl-4-morpholin-4-yl-6-pyridin-4-yl-pyrimidin-2-yl)-phenyl]-3-[4-(3-oxo-morpholin-4-yl)-phenyl]-urea] | 51.7
CSc1c(-c2ccncc2)nc(-c2ccc(NC(=O)Nc3ccc(C(N)=O)cc3)cc2)nc1N1CCOCC1 [MTR-0392, 4-{3-[4-(5-Methylsulfanyl-4-morpholin-4-yl-6-pyridin-4-yl-pyrimidin-2-yl)-phenyl]-ureido}-benzamide] | 46.6
CCOc1cnc(-c2ccc(NC(=O)Nc3ccc(NS(C)(=O)=O)cc3)cc2)nc1N1CCOCC1 [MTR-0394, N-(4-{3-[4-(5-Ethoxy-4-morpholin-4-yl-pyrimidin-2-yl)-phenyl]-ureido}-phenyl)-methanesulfonamide] | 70.5
C[S+]([O-])c1cnc(-c2ccc(NC(=O)Nc3ccc(N4CCOCC4=O)cc3)cc2)nc1N1CCOCC1 (centres unmarked) [MTR-0401, 1-[4-(5-Methanesulfinyl-4-morpholin-4-yl-pyrimidin-2-yl)-phenyl]-3-[4-(3-oxo-morpholin-4-yl)-phenyl]-urea] | 41.7
CSc1cnc(-c2ccc(NC(=O)Nc3ccc(S(C)(=O)=O)cc3)cc2)nc1N1CCOCC1 [MTR-0404, 1-(4-Methanesulfonyl-phenyl)-3-[4-(5-methylsulfanyl-4-morpholin-4-yl-pyrimidin-2-yl)-phenyl]-urea] | 66.9
COc1cnc(-c2ccc(NC(=O)Nc3ccc(N4CCOCC4=O)cc3)c(F)c2)nc1N1CCOCC1 [MTR-0405, 1-[2-Fluoro-4-(5-methoxy-4-morpholin-4-yl-pyrimidin-2-yl)-phenyl]-3-[4-(3-oxo-morpholin-4-yl)-phenyl]-urea] | 52.5
